Reference: US10471028B2, “Small molecule efflux pump inhibitors” (UNIVERSITY OF ROCHESTER, priority 2014, dated 2019)
Where two headings read alike, the source gives them in different places.

Key:
[1] = system: A. baumannii strain 98-37-09; assay: MEC determination: potentiation of minocycline toward serum grown A. baumannii; format: cell-based, Acinetobacter baumannii; details: for Log-reduction Colony Forming Units (ml^−1): 1×MEC of compound plus minocycline in serum, versus minocycline alone, plating; for MEC: lowest concentration inhibiting growth in 100% human serum with 0.5 μg ml^−1 minocycline, 48 hr
Method: The TimTec ActiProbe-25K diversity-set and Natural Product compound libraries (29,900 compounds total; TimTec, Newark, Del.) were initially screened for putative efflux pump inhibitors by identifying compounds that potentiated the antimicrobial property of a sub-inhibitory concentration of minocycline toward A. baumannii grown in human serum. To do so, A. baumannii strain 98-37-09 was grown for 16 hours in LB medium at 37° C. on a rotary shaker at 225 rpm. Approximately 1×10^5 CFU were then transferred to individual wells of a 96-well round-bottom plate (Corning Costar, Tewksbury, Mass.) containing 100 μL of human serum supplemented with of minocycline (0.5 μg mL^−1; 0.5× minimum inhibitory concentration in serum) and individual members of the Timtec ActiProbe or Natural product library (50 μM). Plates were then incubated at 37° C. for 48 hours. Growth was measured as a function of turbidity. Putative efflux pump inhibitors were identified as compounds that inhibited A. baumannii growth in human serum containing minocycline and were subsequently retested in triplicate, as indicated above. Untreated A. baumannii grown in serum supplemented with minocycline+/−PAβN served as positive and negative controls, respectively. […] Repeat testing in which well constituents were serial diluted and plated on LB agar plates validated that 85 compounds did indeed limit A. baumannii growth in serum supplemented with minocycline, reducing the number of viable colony forming units between 2-6 log cfu in comparison to minocycline alone treated cells.
The MEC was defined as the lowest concentration of test compound required to inhibit the growth of A. baumannii in serum in the presence of 0.5 μg ml^−1 minocycline. Plating confirmed that addition of 1×MEC of each compound elicited ≥1.9-log reduction in A. baumannii cells grown in serum supplemented with minocycline alone (see Table 1).

human HepG2 cells = assay: MTT cell viability (cytotoxicity) assay
Method: To distinguish putatively non-toxic from human cytotoxic compounds, conventional 3-(4,5-dimethylthiazol-2yl)-2,5-diphenyltetrazolium bromide (MTT) cell viability assays (American Type Culture Collection, Manassas, Va.) were performed for each compound of interest at 1× and 4× their MEC. Briefly, human HepG2 cells were grown to approximately 1×10^6 cells per well in Dulbecco's Modified Eagle Media supplemented with 10% fetal bovine serum (Invitrogen, Carlsbad, Calif.) then treated with 1× or 4× the MEC of the indicated […] Cell viability was measured following the addition of the tetrazolium salt (MTT) as per the manufacturer's recommendations; cells challenged with 50 ug ml^−1 Mitomycin C (Sigma Aldrich) and mock-treated cells served as positive and negative controls, respectively.

[2] = system: A. baumannii strain 98-37-09; assay: Potentiation of ciprofloxacin toward serum grown A. baumannii; format: cell-based, Acinetobacter baumannii; details: 100% human serum, 0.125 μg ml^−1 ciprofloxacin, 1× or 2× MEC, 48 hour, growth inhibition
Source text: As a means to further prioritize non-toxic compounds of interest based on their therapeutic promise, it was considered that broad spectrum antimicrobial efflux pump inhibitors may be more clinically valuable than narrow-spectrum agents that only potentiate the activity of a limited number of antibiotics or that display activity toward a single bacterial species. […] To do so, 1×10^5 A. baumannii strain 98-37-09 were inoculated into individual wells of microtiter plates containing 100% human serum supplemented with 0.125 μg ml^−1 ciprofloxacin and 0, 1×, or 2× the compound's MEC, as defined by the lowest concentration needed to potentiated minocycline's antimicrobial effects (above). Plates were incubated for 48 hour at which point each compound's ability to potentiate ciprofloxacin was measured, as growth inhibition.

[3] = system: A. baumannii strain 98-37-09; assay: Cellular accumulation of minocycline (HPLC, triple-quadrupole MS); format: cell-based, Acinetobacter baumannii; details: for Minocylcine Per Cell (femtomoles cell^−1): human serum with 0.5 μg mL^−1 minocycline plus test compound (0.5×MEC, 1×MEC), 48 hours
Method: High pressure liquid chromatography and triple-quadrupole mass spectrometry were used to measure the A. baumannii intracellular levels of minocycline during growth in human serum in the absence and presence of each putative efflux pump inhibitor. […] Cultures were incubated for 48 hours with shaking, at which point an aliquot was removed, serially diluted, and plated to determine the number of viable CFU per mixture. The remainder of the cells were pelleted by centrifugation at 900×g at 4° C., washed twice in PBS, mechanically lysed with a FastPrep cell disrupter (MP Biomedicals, Santa Ana, Calif.) for 20 seconds at 5 m s^−1 and the cellular debris was pelleted via centrifugation at 900×g and 4° C. The amount of minocycline present within the supernatant of ruptured cells was measured. Briefly, doxycycline (0.5 μg mL^−1) was first added to each supernatant to serve as an internal control to account for sample-to-sample preparation variability. The supernatant was then combined with acetonitrile (ACN) at a 1:10 ratio and centrifuged at 16,000×g, at 4° C., to collect minocycline and doxycycline. […] residual liquid was evaporated in a speed vacuum for 2 hours at 8,000×g. To quantify the amount of antibiotics retained, sample materials were suspended in 50% acetonitrile, filtered through a 0.2 μm low protein binding hydrophilic membrane (Millipore, Billerica, Mass.) then separated on Shimadzu high performance liquid chromatography instrument (Fisher Scientific) using a BetaBasic C18 reverse phase column (Thermo Scientific). Separation was carried out with two mobile phase solutions consisting of solution (A) water with 0.1% formic acid and solution (B) 100% ACN. The gradient profile of the chromatography runs was as follows: from 0 to 0.1 min 8% solution B, ramp step wise (37% to 60% solution B) from 0.1 to 6.5 min then holding for one minute before ramping down from 60% to 10% from 7.5 to 8 min. This was followed a hold at 10% solution B for one minute. […] The column was equilibrated in 8% solution B at 40° C. and the flow rate was set to 0.2 mL min^−1. Mass spectrometry analysis of fractions was carried out using a Thermo TSQ Quantum Ultra triple quadrupole mass spectrometer (Fisher Scientific). Data were analyzed using Xcalibur software (Thermo Scientific); the following parameters were used to detect minocycline and the internal control doxycycline: 458.208 m/z→282.971 m/z (collision energy=43, tube lens=119) for minocycline and 445.144 m/z→266.900 m/z (collision energy=39, tube lens=127) for doxycycline. Analysis of the raw data was conducted by using the area under the curve calculations with the Genesis algorithm to determine the concentration in each sample. The difference between the peak intensity and the y intercept of pre-established minocycline and doxycycline standard curves was divided by the slope of the standard curve to quantify the amount of minocycline within each sample. The total concentration of minocycline within each cell was calculated by normalizing to the number of cells within each corresponding culture.

## Cc1cc2c(c(=O)o1)C(c1ccc(F)cc1)C(C#N)=C(N)O2 (stereo not drawn) [ST007013]
[1]
  Log-reduction Colony Forming Units (ml^−1): 1.95 log
  MEC: 4 µg/mL
Human HepG2 cells
  % Viability: 80.9%
[2]
  Potentiate Ciprofloxacin A. baumannii: No
[3]
  Minocylcine Per Cell (femtomoles cell^−1): 5E−04 femtomoles cell^−1

## c1ccc(CN2CCN(Cc3ccccc3)C2c2cccs2)cc1 [ST007852]
[1]
  Log-reduction Colony Forming Units (ml^−1): 4.21 log
  MEC: 4 µg/mL
Human HepG2 cells
  % Viability: 65.77%
[3]
  Minocylcine Per Cell (femtomoles cell^−1): 5.9E−05 femtomoles cell^−1

## CC1CCN(Cc2cc(Cl)c3cccnc3c2O)CC1 [ST007924]
[1]
  Log-reduction Colony Forming Units (ml^−1): 2.42 log
  MEC: 4 µg/mL
Human HepG2 cells
  % Viability: 67.45%
[3]
  Minocylcine Per Cell (femtomoles cell^−1): 5.12E−05 femtomoles cell^−1

## CCOc1ccc(/C=N/c2ccc(S(N)(=O)=O)cc2)cc1 [ST009694]
[1]
  Log-reduction Colony Forming Units (ml^−1): 6.24 log
  MEC: 4 µg/mL
Human HepG2 cells
  % Viability: 74.6%
[3]
  Minocylcine Per Cell (femtomoles cell^−1): 6.8E−07 femtomoles cell^−1

## NS(=O)(=O)c1ccc(/N=C/c2ccc(F)cc2)cc1 [ST009698]
[1]
  Log-reduction Colony Forming Units (ml^−1): 6.45 log
  MEC: 64 µg/mL
Human HepG2 cells
  % Viability: 73.56%
[3]
  Minocylcine Per Cell (femtomoles cell^−1): 1.52E−05 femtomoles cell^−1

## NS(=O)(=O)c1ccc(/N=C/c2ccc(Br)cc2)cc1 [ST009699]
[1]
  Log-reduction Colony Forming Units (ml^−1): 6.84 log
  MEC: 2 µg/mL
Human HepG2 cells
  % Viability: 70.45%
[3]
  Minocylcine Per Cell (femtomoles cell^−1): 1.15E−04 femtomoles cell^−1

## CCOc1ccccc1C(=O)Nc1sc2c(c1C(=O)OC(C)C)CCCC2 [ST009896]
[1]
  Log-reduction Colony Forming Units (ml^−1): 2.45 log
  MEC: 2 µg/mL
Human HepG2 cells
  % Viability: 73.54%
[3]
  Minocylcine Per Cell (femtomoles cell^−1): 3.99E−05 femtomoles cell^−1

## Cc1ccc(C=Nc2cc([N+](=O)[O-])ccc2O)cc1 [ST010277]
[1]
  Log-reduction Colony Forming Units (ml^−1): 7.33 log
  MEC: 32 µg/mL
Human HepG2 cells
  % Viability: 82.4%
[2]
  Potentiate Ciprofloxacin A. baumannii: No
[3]
  Minocylcine Per Cell (femtomoles cell^−1): 1.15E−05 femtomoles cell^−1

## O=C(c1ccc([N+](=O)[O-])cc1Cl)N1CCCc2ccccc21 [ST011123]
[1]
  Log-reduction Colony Forming Units (ml^−1): 2.83 log
  MEC: 32 µg/mL
Human HepG2 cells
  % Viability: 67.89%
[3]
  Minocylcine Per Cell (femtomoles cell^−1): 1.19E−05 femtomoles cell^−1

## O=[N+]([O-])c1cc2c(cc1/C=N/c1ccc(S(=O)(=O)Nc3nccs3)cc1)OCO2 [ST012902]
[1]
  Log-reduction Colony Forming Units (ml^−1): 3.71 log
  MEC: 2 µg/mL
Human HepG2 cells
  % Viability: 55.1%
[3]
  Minocylcine Per Cell (femtomoles cell^−1): 1.1E−05 femtomoles cell^−1

## O=[N+]([O-])c1cccc(/C=N/c2ccc(S(=O)(=O)Nc3nccs3)cc2)c1 [ST012961]
[1]
  Log-reduction Colony Forming Units (ml^−1): 6.23 log
  MEC: 32 µg/mL
Human HepG2 cells
  % Viability: 59.32%
[3]
  Minocylcine Per Cell (femtomoles cell^−1): 1.13E−04 femtomoles cell^−1

## COc1ccc(/C=N/c2ccc(S(N)(=O)=O)cc2)c(OC)c1 [ST016442]
[1]
  Log-reduction Colony Forming Units (ml^−1): 3.88 log
  MEC: 2 µg/mL
Human HepG2 cells
  % Viability: 53.43%
[3]
  Minocylcine Per Cell (femtomoles cell^−1): 1.96E−04 femtomoles cell^−1

## COc1ccc(OC)c(/C=N/c2ccc(S(N)(=O)=O)cc2)c1 [ST016443]
[1]
  Log-reduction Colony Forming Units (ml^−1): 2.00 log
  MEC: 2 µg/mL
Human HepG2 cells
  % Viability: 57.49%
[3]
  Minocylcine Per Cell (femtomoles cell^−1): 4.4E−04 femtomoles cell^−1

## CCc1ccc(/C=N/c2ccc(S(N)(=O)=O)cc2)cc1 [ST016444]
[1]
  Log-reduction Colony Forming Units (ml^−1): 4.86 log
  MEC: 16 µg/mL
Human HepG2 cells
  % Viability: 53.92%
[3]
  Minocylcine Per Cell (femtomoles cell^−1): 2.02E−05 femtomoles cell^−1

## COc1ccc(O)c(/C=N/N=C/c2cc(OC)ccc2O)c1 [ST020959]
[1]
  Log-reduction Colony Forming Units (ml^−1): 6.90 log
  MEC: 2 µg/mL
Human HepG2 cells; human, 48 h, 4 ×MEC
  % Viability: 51.04%
[3]
  Minocylcine Per Cell (femtomoles cell^−1): 1.27E−04 femtomoles cell^−1

## Cc1nnc(SCC2=C(C(=O)[O-])N3C(=O)[C@@H](NC(=O)Cn4cnnn4)[C@H]3SC2)s1.[Na+] [ST024775]
[1]
  Log-reduction Colony Forming Units (ml^−1): 4.84 log
  MEC: 16 µg/mL
Human HepG2 cells; HepG2 cellular survival at 4×MEC
  % Viability: 41.62%
[3]
  Minocylcine Per Cell (femtomoles cell^−1): 1.72E−05 femtomoles cell^−1

## CCOC(=O)/C=C/C(=O)Nc1ccc(S(=O)(=O)Nc2nccs2)cc1 [ST026450]
[1]
  Log-reduction Colony Forming Units (ml^−1): 5.37 log
  MEC: 32 µg/mL
Human HepG2 cells; human, 48 h, 4 ×MEC
  % Viability: 100%
[2]
  Potentiate Ciprofloxacin A. baumannii: No
[3]
  Minocylcine Per Cell (femtomoles cell^−1): 2.35E−06 femtomoles cell^−1

## CCOC(=O)/C=C/C(=O)Nc1ccc(S(N)(=O)=O)cc1 [ST026465]
[1]
  Log-reduction Colony Forming Units (ml^−1): 6.36 log
  MEC: 32 µg/mL
Human HepG2 cells; human, 48 h, 4 ×MEC
  % Viability: 100%
[2]
  Potentiate Ciprofloxacin A. baumannii: No
[3]
  Minocylcine Per Cell (femtomoles cell^−1): 3.82E−04 femtomoles cell^−1

## O=C(c1ccc(Cl)cc1Cl)n1cc([N+](=O)[O-])cn1 [ST033231]
[1]
  Log-reduction Colony Forming Units (ml^−1): 1.91 log
  MEC: 32 µg/mL
Human HepG2 cells
  % Viability: 70.87%
[3]
  Minocylcine Per Cell (femtomoles cell^−1): 3.42E−06 femtomoles cell^−1

## COc1cc(/C=N/NC(=O)c2sc3ccccc3c2Cl)cc(OC)c1OC [ST033346]
[1]
  Log-reduction Colony Forming Units (ml^−1): 2.00 log
  MEC: 2 µg/mL
Human HepG2 cells
  % Viability: 74.67%
[3]
  Minocylcine Per Cell (femtomoles cell^−1): 3.615E−07 femtomoles cell^−1

## CC(=O)NS(=O)(=O)c1ccc(N)cc1 [ST040724]
[1]
  Log-reduction Colony Forming Units (ml^−1): 4.08 log
  MEC: 64 µg/mL
[2]
  Potentiate Ciprofloxacin A. baumannii: No
[3]
  Minocylcine Per Cell (femtomoles cell^−1): 1.45E−04 femtomoles cell^−1

## CN(C)c1ccc(O)c2c1C[C@H]1C[C@H]3[C@H](N(C)C)C(O)=C(C(N)=O)C(=O)[C@@]3(O)C(O)=C1C2=O [minocycline, reference compound]
Human HepG2 cells; minocycline tested alone at 2 μg ml^−1
  HepG2 survival: 77.9%
[3]; growth in serum (efflux active conditions), minocycline without efflux inhibitor
  cellular minocycline concentration: 1.58×10^−10 femtomoles per bacterial cell
